B1: TorsinA wild type, C-terminally FLAG-tagged, full length (enzyme, human, UniProt O14656 21-332, looked up)
chain: VEPISLGLALAGVLTGYIYPRLYCLFAECCGQKRSLSREALQKDLDDNLFGQHLAKKIILNAVFGFINNPKPKKPLTLSLHGWTGTGKNFVSKIIAENIYEGGLNSDYVHLFVATLHFPHASNITLYKDQLQLWIRGNVSACARSIFIFDEMDKMHAGLIDAIKPFLDYYDLVDGVSYQKAMFIFLSNAGAERITDVALDFWRSGKQREDIKLKDIEHALSVSVFNNKNSGFWHSSLIDRNLIDYFVPFLPLEYKHLKMCIRVEMQSRGYEIDEDIVSRVAEEMTFFPKEERVFSDKGCKTVFTKLDYYYDD

Key:
[1] = molecular target: TorsinA (TorA) with LAP1 luminal domain (LAP1^LD) (Homo sapiens, UniProt O14656); conditions: 3 μM TorA, 3 μM LAP1 LD, 2 mM ATP, 37 °C, 1 h
TorsinA (TorA) with LAP1 luminal domain (LAP1^LD), sequence (Q5JTV8 356-583 partner, one chain of several): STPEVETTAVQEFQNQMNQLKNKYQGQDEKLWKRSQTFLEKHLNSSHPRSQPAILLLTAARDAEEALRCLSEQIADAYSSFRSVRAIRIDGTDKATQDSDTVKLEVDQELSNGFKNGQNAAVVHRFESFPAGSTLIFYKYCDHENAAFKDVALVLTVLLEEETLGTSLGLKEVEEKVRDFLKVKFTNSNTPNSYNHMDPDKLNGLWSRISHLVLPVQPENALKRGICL

[2] = molecular target: TorsinA (TorA) with LULL1 luminal domain (LULL1^LD) (Homo sapiens, UniProt O14656); conditions: 3 μM TorA, 3 μM LULL1 LD, 2 mM ATP, 37 °C, 1 h
TorsinA (TorA) with LULL1 luminal domain (LULL1^LD), sequence (Q8NFQ8 236-470 partner, one chain of several): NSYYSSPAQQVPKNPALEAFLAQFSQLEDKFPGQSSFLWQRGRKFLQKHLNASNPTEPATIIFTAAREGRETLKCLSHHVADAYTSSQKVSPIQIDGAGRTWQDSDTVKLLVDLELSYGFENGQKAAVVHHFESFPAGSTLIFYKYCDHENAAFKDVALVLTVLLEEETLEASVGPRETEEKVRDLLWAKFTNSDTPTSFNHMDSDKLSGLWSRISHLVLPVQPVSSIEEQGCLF

[3] = molecular target: the molecule itself; assay: SEC + other: negative stain electron microscopy

Row | Molecule | malachite green phosphate release (ATPase) [1] | malachite green phosphate release (ATPase) [2] | stoichiometry N [3]
1 | Nc1ncnc2c1ncn2[C@@H]1O[C@H](COP(=O)(O)OP(=O)(O)OP(=O)(O)O)[C@@H](O)[C@H]1O [ATP] | ATPase activity was measured in the absence and presence of LAP1^LD and LULL1^LD | ATPase activity was measured in the absence and presence of LAP1^LD and LULL1^LD | 
2 | B1 |  |  | ~6
